Consider 22 compounds from ChEMBL document CHEMBL1134533, “Design, synthesis, computational prediction, and biological evaluation of ester soft drugs as inhibitors of dihydrofolate reductase from Pneumocystis carinii” (J Med Chem, 2001).

Test [1] addresses T1, Dihydrofolate reductase (Rattus norvegicus, UniProt Q920D2).
T1 sequence (Q920D2 whole entry): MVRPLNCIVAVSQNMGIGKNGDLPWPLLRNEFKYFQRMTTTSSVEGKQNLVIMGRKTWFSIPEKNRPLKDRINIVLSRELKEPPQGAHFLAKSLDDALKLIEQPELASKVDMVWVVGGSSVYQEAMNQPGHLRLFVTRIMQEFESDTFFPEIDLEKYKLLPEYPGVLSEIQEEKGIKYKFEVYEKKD
Description: Inhibitory concentration against dihydrofolate reductase DHFR from rat liver.

Test [2] deals with T2, Bifunctional dihydrofolate reductase-thymidylate synthase (Toxoplasma gondii, UniProt Q07422).
T2 sequence (Q07422 whole entry): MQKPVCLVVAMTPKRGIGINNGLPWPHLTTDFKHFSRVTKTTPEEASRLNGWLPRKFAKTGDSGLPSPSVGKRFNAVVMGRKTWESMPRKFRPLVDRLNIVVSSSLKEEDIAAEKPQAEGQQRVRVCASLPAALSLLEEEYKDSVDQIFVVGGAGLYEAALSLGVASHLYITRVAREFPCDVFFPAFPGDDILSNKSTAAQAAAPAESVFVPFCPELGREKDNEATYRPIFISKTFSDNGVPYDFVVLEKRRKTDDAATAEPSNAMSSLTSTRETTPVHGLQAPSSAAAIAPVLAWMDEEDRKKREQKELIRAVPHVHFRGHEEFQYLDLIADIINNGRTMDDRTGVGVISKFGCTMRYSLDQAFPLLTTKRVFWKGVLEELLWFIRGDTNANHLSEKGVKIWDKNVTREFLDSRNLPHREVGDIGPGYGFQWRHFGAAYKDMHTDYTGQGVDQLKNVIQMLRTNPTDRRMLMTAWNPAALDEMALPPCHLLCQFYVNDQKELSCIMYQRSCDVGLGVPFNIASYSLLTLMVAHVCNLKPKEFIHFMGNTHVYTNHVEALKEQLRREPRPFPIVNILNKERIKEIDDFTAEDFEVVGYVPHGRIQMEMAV
Description: Inhibitory concentration against dihydrofolate reductase DHFR from Toxoplasma gondii

The target in test [3] is T3, Dihydrofolate reductase (Rattus norvegicus) (UniProt Q920D2).
T3 sequence (whole entry): T1 sequence (Q920D2 whole entry)
Put plainly: Inhibitory activity against dihydrofolate reductase DHFR from rat liver at 32 uM concentration.

In test [4] the target is T4, Dihydrofolate reductase (Pneumocystis carinii) (UniProt P16184).
T4 sequence (whole entry): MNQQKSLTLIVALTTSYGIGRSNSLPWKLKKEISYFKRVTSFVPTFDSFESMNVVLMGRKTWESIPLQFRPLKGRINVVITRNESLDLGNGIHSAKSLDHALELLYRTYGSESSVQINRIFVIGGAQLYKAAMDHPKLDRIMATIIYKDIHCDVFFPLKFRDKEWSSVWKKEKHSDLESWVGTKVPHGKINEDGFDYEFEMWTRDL
Put plainly: Inhibitory activity against dihydrofolate reductase dihydrofolate reductase from Pneumocystis carinii. at 32 uM concentration.

In test [5] the target is T5, Bifunctional dihydrofolate reductase-thymidylate synthase (Toxoplasma gondii) (UniProt Q07422).
T5 sequence (whole entry): T2 sequence (Q07422 whole entry)
Kind of test: Inhibitory activity against dihydrofolate reductase DHFR from Toxoplasma gondii at 32 uM concentration.

Test [6] has as its target T6, Dihydrofolate reductase (Pneumocystis carinii, UniProt P16184).
T6 sequence (P16184 whole entry): T4 sequence (whole entry)
Description: Inhibitory concentration against dihydrofolate reductase dihydrofolate reductase from Pneumocystis carinii.

Test [7] addresses T5, Bifunctional dihydrofolate reductase-thymidylate synthase (Toxoplasma gondii). Put plainly: Relative activity against dihydrofolate reductase DHFR from Toxoplasma gondii.
Test [8] in a line: Ratio of the IC50 values for rlDHFR of the metabolite and pcDHFR of the soft drug.
In test [9] the target is T3, Dihydrofolate reductase (Rattus norvegicus). Put plainly: Inhibitory activity against dihydrofolate reductase DHFR from rat liver at 104 uM concentration.
Test [10] deals with T4, Dihydrofolate reductase (Pneumocystis carinii). Kind of test: Inhibitory activity against dihydrofolate reductase dihydrofolate reductase from Pneumocystis carinii. at 104 uM concentration.
Test [11] concerns the target T5, Bifunctional dihydrofolate reductase-thymidylate synthase (Toxoplasma gondii). Kind of test: Inhibitory activity against dihydrofolate reductase DHFR from Toxoplasma gondii at 104 uM concentration.
In test [12] the target is T3, Dihydrofolate reductase (Rattus norvegicus). Put plainly: Inhibitory activity against dihydrofolate reductase DHFR from rat liver at 51 uM concentration.
Test [13] concerns the target T4, Dihydrofolate reductase (Pneumocystis carinii). Put plainly: Inhibitory activity against dihydrofolate reductase dihydrofolate reductase from Pneumocystis carinii. at 51 uM concentration.
Test [14] has as its target T5, Bifunctional dihydrofolate reductase-thymidylate synthase (Toxoplasma gondii). Put plainly: Inhibitory activity against dihydrofolate reductase DHFR from Toxoplasma gondii at 51 uM concentration.

The term IC50 denotes the concentration that inhibits the measured activity by half. A high value points to lower potency. In the case of `Cc1c(CO)cnc2nc(N)nc(N)c12`, the concentration for half-maximal inhibition (IC50) came to 8500 nM against Dihydrofolate reductase [1] and 3200 nM in test [2].
What is called inhibition is the relative decrease from the control value, in per cent. For `Nc1nc(N)c2cc(C(=O)O)ccc2n1`, the inhibition in test [3] came to 3%; in test [4] it was 11%; in [5] it was 16%.
For `COc1ccc(C(=O)OCc2ccc3nc(N)nc(N)c3c2)cc1OC`, the IC50 was 510 nM on Dihydrofolate reductase [6], 110 nM on Dihydrofolate reductase [1] and 66 nM in [2].
With `COc1cc(OC)cc(C(=O)OCc2ccc3nc(N)nc(N)c3c2)c1`, the half-maximal inhibitory concentration (IC50) is 460 nM at Dihydrofolate reductase [6], 350 nM against Dihydrofolate reductase [1] and 150 nM in test [2].
Regarding `Nc1nc(N)c2cc(COC(=O)Cc3ccccc3)ccc2n1`, the IC50 worked out at 2300 nM on Dihydrofolate reductase [1] and 1900 nM in test [2].
In turn, `COc1cc(NCc2ccc3nc(N)nc(N)c3c2C)cc(OC)c1OC` [TRIMETREXATE] had a half-maximal inhibitory concentration (IC50) against Dihydrofolate reductase [1] of 8 nM.
`COc1ccc(OC)c(Cc2cnc3nc(N)nc(N)c3c2C)c1` [PIRITREXIM]: at Dihydrofolate reductase [1], the IC50 came to 4.4 nM.
Regarding `Nc1nc(N)c2cc(CNc3ccccc3)ccc2n1`, the figures for the IC50 (on Dihydrofolate reductase [6]; on Dihydrofolate reductase [1]; in test [2]) were 980 nM, 440 nM and 100 nM, respectively.
On to `Nc1nc(N)c2cc(COC(=O)c3ccccc3)ccc2n1`, for which, in [7], the Relative IC50 turned out to be 3.9. Moreover, the Ratio in test [8] stood at 67. In addition, the half-maximal inhibitory concentration (IC50) against Dihydrofolate reductase [6] was 600 nM; on Dihydrofolate reductase [1], 390 nM; in test [2], 99 nM.
For the compound `Nc1nc(N)c2cc(/C=C/C(=O)Oc3ccccc3)ccc2n1`, the IC50 turned out to be 1290 nM at Dihydrofolate reductase [1] and 189 nM in test [2].
`Nc1nc(N)c2cc(C(=O)OCc3ccccc3)ccc2n1` registered a Relative IC50 in test [7] of 1.2. The half-maximal inhibitory concentration (IC50) on Dihydrofolate reductase [6] was 2500 nM; against Dihydrofolate reductase [1], 420 nM; in test [2], 360 nM.
Turning to `Nc1nc(N)c2cc(CO)ccc2n1`, the results for the IC50 (on Dihydrofolate reductase [1]; in test [2]) were 40300 nM and 44900 nM, respectively.
As for `Cc1c(COC(=O)c2ccccc2)cnc2nc(N)nc(N)c12`, the Ratio in [8] was found to be 33. Besides, the half-maximal inhibitory concentration (IC50) against Dihydrofolate reductase [6] came out at 250 nM; at Dihydrofolate reductase [1] it was 230 nM; in [2], 56 nM.
Turning to `Nc1nc(N)c2cc(CO)cnc2n1`, the inhibition came out at 19% in test [9], 17% in [10] and 9% in [11].
`CN(Cc1ccc2nc(N)nc(N)c2c1)c1ccccc1`: the IC50 on Dihydrofolate reductase [6] worked out at 96 nM; against Dihydrofolate reductase [1], 69 nM; in test [2], 11 nM.
Regarding `COc1cc(C(=O)OCc2ccc3nc(N)nc(N)c3c2)cc(OC)c1OC`, the Relative IC50 in [7] is 0.51. In addition, the IC50 against Dihydrofolate reductase [6] came to 560 nM; at Dihydrofolate reductase [1] it was 26 nM; in [2], 50 nM.
Take `COc1ccc(C(=O)OCc2ccc3nc(N)nc(N)c3c2)c(OC)c1OC`: the IC50 turned out to be 1400 nM against Dihydrofolate reductase [6], 500 nM against Dihydrofolate reductase [1] and 140 nM in test [2].
As to `Nc1nc(N)c2cc(COC(=O)c3ccc(C(=O)O)cc3)ccc2n1`, the concentration for half-maximal inhibition (IC50) (on Dihydrofolate reductase [6]; in test [2]) was 1000 nM in each case.
For `Nc1nc(N)c2nc(COC(=O)c3ccccc3)cnc2n1`, the values for the 50% inhibitory concentration (IC50) (at Dihydrofolate reductase [6]; on Dihydrofolate reductase [1]; in test [2]) were 9800 nM, 7000 nM and 5800 nM, respectively.
Take `Nc1nc(N)c2nc(CO)cnc2n1`: the inhibition in test [12] was determined as 2%; in [13], 10%; in [14] it was 12%.
As for `Nc1nc(N)c2cc(COC(=O)c3ccccc3)cnc2n1`, the results for the IC50 (against Dihydrofolate reductase [6]; on Dihydrofolate reductase [1]; in [2]) were 5450 nM, 3900 nM and 1900 nM, respectively.
Turning to `COc1ccc(OC)c(C(=O)OCc2ccc3nc(N)nc(N)c3c2)c1`, the concentration for half-maximal inhibition (IC50) amounted to 2400 nM against Dihydrofolate reductase [6], 420 nM against Dihydrofolate reductase [1] and 220 nM in [2].
